Reference: ChEMBL document CHEMBL1153686, “On the microbial biogeneration of (R) -jasmolactone” (1993)

Legend:
Format in all cases: functional
Kodamaea ohmeri [1] = test: Z-6-dodecen-4-olide Isolated at 24 hours incubation of compound in Pichia ohmeri
Scheffersomyces stipitis [2] = test: Z-6, Z-9-dodecadien-4-olide Isolated at 24 hours incubation of compound in Pichia stipitis
Kodamaea ohmeri [3] = test: dodecan-4-olide Isolated at 24 hours incubation of compound in Pichia ohmeri
Scheffersomyces stipitis [4] = test: dodecan-4-olide Isolated at 24 hours incubation of compound in Pichia stipitis
Kodamaea ohmeri [5] = test: Z-6, Z-9-dodecadien-4-olide Isolated at 24 hours incubation of compound in Pichia ohmeri
Scheffersomyces stipitis [6] = test: 5-tetradecen-4-olide Isolated at 24 hours incubation of compound in Pichia stipitis
Scheffersomyces stipitis [7] = test: Z-6-dodecen-4-olide Isolated at 24 hours incubation of compound in Pichia stipitis
Scheffersomyces stipitis [8] = test: Z-7-decen-5-olide Isolated at 24 hours incubation of compound in Pichia stipitis
Kodamaea ohmeri [9] = test: Z-7-decen-5-olide Isolated at 24 hours incubation of compound in Pichia ohmeri
Scheffersomyces stipitis [10] = test: 5-octen-4-olide Isolated at 24 hours incubation of compound in Pichia stipitis
Scheffersomyces stipitis [11] = test: Hexane-4-olide Isolated at 24 hours incubation of compound in Pichia stipitis
Kodamaea ohmeri [12] = test: Hexane-4-olide Isolated at 24 hours incubation of compound in Pichia ohmeri
Scheffersomyces stipitis [13] = test: E-5,Z-7-dodien-4-olide Isolated at 24 hours incubation of compound in Pichia stipitis
Kodamaea ohmeri [14] = test: E-5-decen-4-olide Isolated at 24 hours incubation of compound in Pichia ohmeri
Kodamaea ohmeri [15] = test: Decan-4-olide Isolated at 24 hours incubation of compound in Pichia ohmeri
Scheffersomyces stipitis [16] = test: E-5-decen-4-olide Isolated at 24 hours incubation of compound in Pichia stipitis
Kodamaea ohmeri [17] = test: E-5,Z-7-dodien-4-olide solated at 24 hours incubation of compound in Pichia ohmeri
Kodamaea ohmeri [18] = test: Nonan-4-olide Isolated at 24 hours incubation of compound in Pichia ohmeri
Scheffersomyces stipitis [19] = test: […] Isolated at 24 hours incubation of compound in Pichia stipitis
Scheffersomyces stipitis [20] = test: Octane-4-olide Isolated at 24 hours incubation of compound in Pichia stipitis
Kodamaea ohmeri [21] = test: […] Isolated at 24 hours incubation of compound in Pichia ohmeri

## CCCCCCCC/C=C/CCCC1CCC(=O)O1 (stereo unspecified)
Kodamaea ohmeri [1]
  Lactone production: 11.8
Scheffersomyces stipitis [2]
  Lactone production: 16.7
Kodamaea ohmeri [3]
  Lactone production: 4.6
Scheffersomyces stipitis [4]
  Lactone production: 4
Kodamaea ohmeri [5]
  Lactone production: 25.6
Scheffersomyces stipitis [6]
  Lactone production: 2.6
Scheffersomyces stipitis [7]
  Lactone production: 11

## CC/C=C/C[C@@H]1CCC(=O)O1
Scheffersomyces stipitis [8]
  Lactone production: 12.5
Kodamaea ohmeri [9]
  Lactone production: 12.3

## CC/C=C/CCCC1CCC(=O)O1 (stereo unspecified)
Scheffersomyces stipitis [10]
  Lactone production: 11.9
Scheffersomyces stipitis [11]
  Lactone production: 3.2
Kodamaea ohmeri [12]
  Lactone production: 8.25

## CC/C=C/C=C/[C@@H]1CCC(=O)O1
Scheffersomyces stipitis [13]
  Lactone production: 25.09
Kodamaea ohmeri [14]
  Lactone production: 7.6
Kodamaea ohmeri [15]
  Lactone production: 1.5
Scheffersomyces stipitis [16]
  Lactone production: 8.6
Kodamaea ohmeri [17]
  Lactone production: 20.5

## CC/C=C/CC[C@@H]1CCC(=O)O1
Kodamaea ohmeri [18]
  Lactone production: 5.9
Scheffersomyces stipitis [19]
  Lactone production: 0.3
Scheffersomyces stipitis [20]
  Lactone production: 4
Kodamaea ohmeri [21]
  Lactone production: 1.1
